Values of other authors, collected in US7368585B2, “Synthetic techniques and intermediates for polyhydroxy dienyl lactones and mimics thereof” (The Trustees Of The University Of Pennsylvania, priority 1996, dated 2008).

How the values were obtained:
[1] = system: two-way mixed-lymphocyte reaction; conditions: in vitro
[2] = system: murine splenocytes; conditions: in vitro
[3] = system: graft-vs.-host splenomegaly response; conditions: in vivo
[4] = system: murine splenocytes; conditions: in vitro; remark: listed apart in the source
[5] = system: cell development at the M phase; conditions: by binding and stabilizing mitotic spindle microtubules
[6] = system: mitotic spindle microtubules; conditions: compared with taxol

C=C/C=C\[C@H](C)[C@H](OC(N)=O)[C@@H](C)[C@H](O)[C@@H](C)C/C(C)=C\[C@H](C)[C@@H](O)[C@@H](C)/C=C\[C@@H](O)C[C@@H]1OC(=O)[C@H](C)[C@@H](O)[C@H]1C [(+)-discodermolide]
suppression of the two-way mixed-lymphocyte reaction [1]: suppresses
associated cytotoxicity [2]: no associated cytotoxicity
potency in graft-vs.-host splenomegaly response relative to cyclosporin A and FK506 ([3]; F1 recipient mice): intermediate between those of cyclosporin A and FK506
suppression of graft-vs.-host splenomegaly response ([3]; injection of parental splenocytes into F1 recipient mice): suppresses
suppression of concanavalin A-induced mitogenesis of murine splenocytes [4]: suppresses
cell cycle effect [5]: arrests cell development at the M phase
microtubule binding affinity relative to taxol [6]: much higher
